# Experiments:
# [1] = cited from the MSDS; cited from earlier work
# [2] = cited from earlier work
# DNA = DNA binding constant
# plasmid DNA = test: Photocleavage of plasmid DNA (ethidium bromide stained agarose gel); assay type: biochemical; settings: irradiation with visible light (λ>395 nm); 120 μM plasmid DNA; 25 and 50 μM riboflavin; 30 min incubation, 30 min irradiation
# Source text: From the left: Lane 1: DNA only, dark. Lane 2: DNA only, irradiated.
# [3] = Singlet oxygen study using ADPA as singlet oxygen sensor; assay type: physicochemical; settings: after 15 minutes of irradiation
# Water solubility = assay type: physicochemical
# E. coli = test: microbe, parasite or virus in culture; settings: Escherichia coli, light or radiation study, read-out: LD50 E. coli Irradiated
# Source text for Human Skin: Toxicity of the formulations towards human skin cells is examined by previously published methods.
SMILES,LD50 Human Skin Dark (Human Skin; dark),LD50 Human Skin Irradiated (Human Skin; irradiated),LD50 Acute Oral Toxicity [1],water solubility [2],DNA binding constant Kb (DNA),Photocleavage of plasmid DNA from Form I (supercoiled) to Form II (nicked) (plasmid DNA),Production of singlet oxygen [3],concentration showing precipitation in water (Water solubility),LD50 (E. coli)
"CC1=C(C/C=C(\C)CCC[C@H](C)CCC[C@H](C)CCCC(C)C)C(=O)c2ccccc2C1=O [Phylloquinone, phylloquinone]",No Effect,"18,779 mg/Kg","25,000 mg/Kg",does not dissolve in water,,,,,
"Cc1cc2nc3c(=O)[nH]c(=O)nc-3n(C[C@H](O)[C@H](O)[C@H](O)CO)c2cc1C [Riboflavin, 7,8-dimethyl-10-ribityl-isoalloxazine]",,,,100 µg/mL,> 10^4 M^−1,can cleave DNA,capable of producing a large quantity of singlet oxygen,250 μm,85 mg/kg

# Source: US20130245598A1, “PHOTOACTIVE VITAMIN NANOPARTICLES FOR THE TREATMENT OF CHRONIC WOUNDS” (priority 2010, published 2013)
